“Also recorded” adds a separate entry of the source.
What was measured:
[1] = Sensory evaluation of sweeteners in iced tea; type: in vivo; settings: 200 ml serving, aspartame 450 ppm, monatin 40 ppm, panel n=6
Description: Monatin formulations, including R,R monatin or R,R monatin/erythritol combinations, were assessed relative to other known sweeteners (aspartame and sucralose) in iced tea. The key sensory parameters assessed included sweetness quality, aftertaste, bitter taste and its aftertaste. Qualitative evaluation has been carried out.
An ice tea formulation was developed to evaluate sweetener performance (Table 7).
Sweeteners were added to tea at the following concentrations:
The evaluation of ice tea drinks was carried out by a panel (n=6) of experienced sensory evaluators.

[2] = Sensory stability of monatin and aspartame at pH 2.5, 3.0, 4.0 at 40° C.; type: physicochemical; settings: for Rate constant (k) of sweetness loss: 40° C., pseudo-first order assumed; for SEV Monatin / Retention of Monatin Sweetness: stored at 40° C., monatin ~55 ppm
Description: The sensory stability of monatin solutions prepared at pH 2.5, 3.0 and 4.0 and stored at 40° C. was monitored for 100 days. Loss of sweetness from these solutions was compared with the losses of sweetness from aspartame solutions prepared and stored under identical conditions.
The sensory stability of monatin (8% SEV, ˜55 ppm, synthetic blend containing approximately 96% of the 2R,4R/2S, 4S enantiometric pair and 4% of the 2R,4S/2S,4R enantiometric pair) in phosphate/citrate buffers having a pH of 2.5, 3.0, and 4.0 was examined after storage at 40° C. The stability of monatin was compared to that of aspartame (400 ppm) in the same buffers. Three sucrose reference solutions were prepared in the same phosphate/citrate buffers as the monatin and aspartame solutions. All prepared solutions were stored in the dark.
The sweetness of each sweetener relative to sucrose was assessed in duplicate by a panel (n=8) of trained sensory evaluators experienced in the sweetness estimation procedure. All samples (in the same buffers) were served in duplicate at a temperature of 22° C.±1° C. Monatin (test) solutions, coded with 3 digit random number codes were presented individually to panelists, in random order. Sucrose reference standards, ranging from 4.0-10.0% (w/v) sucrose, increasing in steps of 0.5% (w/v) sucrose were also provided. Panelists were asked to estimate sweetness by comparing the sweetness of the test solution to the sucrose standards. This was carried out by taking 3 sips of the test solution, followed by a sip of water, followed by 3 sips of sucrose standard followed by a sip of water, etc. Panelists were encouraged to estimate the sweetness to one decimal place, e.g., 6.8, 8.5. A five minute rest period was imposed between evaluating the test solutions. Panelists were also asked to rinse well and eat a cracker to reduce any potential carry over effects.
If a pseudo-first order breakdown reaction is assumed, a plot of logn percentage retention versus time (logn % RTN v. t) allows estimation of the half-life (t½) and rate constant (k) of sweetness loss under any given set of conditions. In so doing, the kinetics of monatin and aspartame sweetness loss may be summarized as follows in Table 14.

[3] = Stability of monatin at high temperature (80° C.) and neutral pH, LC-MS; type: physicochemical; settings: pH 7, 75 ppm, after 7-35 days, synthetic ~96% 2R,4R/2S,4S
Description: A 100 milliliter solution of 75 ppm monatin at pH 7 was used as a stock solution. The synthetic monatin sample contained approximately 96% of the 2R,4R/2S,4S enantiomeric pair and 4% of the 2R,4S/2S,4R enantiomeric pair. Samples were incubated at 80° C. and pH 7 for the duration of the experiment and samples were withdrawn at 0, 1, 2, 3, 4 hours and 1, 2, 4, 7, 14, 21 and 35 days. All experimental conditions were run in duplicate.
A response curve was established for both detected diastereomer peaks of the synthetic monatin. A range of 5-150 ppm was bracketed with the synthetic monatin standard dissolved in DI water. Separation of the two diastereomer peaks was accomplished using a 3.9×150 mm Novapak C18 (Waters Corporation) HPLC column. Ultraviolet-Visible (UV) and Mass Spectrometer (MS) detectors were used in series for detection and quantitation. Monatin and its lactone peak each have a UVmax at 279 nm that aided in precise detection. Quantification was done by acquiring Selected Ion Monitoring (SIM) scan of 293.3 m/z and 275.3 m/z in positive-ion electrospray mode.

[4] = Quantitative synergy of monatin in blends with other sweeteners; type: in vivo

## NC(CC(O)(Cc1c[nH]c2ccccc12)C(=O)O)C(=O)O (stereo not drawn) [Monatin, 2-hydroxy-2-(indol-3-ylmethyl)-4-aminoglutaric acid]
[1]
  Comments: flavor enhancement (lemon flavor notes): enhanced the lemon flavor notes
[2]; acidic conditions and storage at 40° C.
  stability of sweetness compared with aspartame: more stable sweetness than does aspartame
[2]; each pH (2.5, 3.0, 4.0), after 100 days storage at 40° C.
  percentage retention of sweetness compared with aspartame: greater than that retained with aspartame; also recorded: greater than that retained from aspartame
[2]; pH 2.5
  Rate constant (k) of sweetness loss: 0.011 day⁻¹
[2]; pH 2.5, after 100 days storage at 40° C.
  Sweetness Retained: 29%
[2]; pH 2.5, day 0
  SEV Monatin: 7.35 % sucrose
[2]; pH 2.5, day 1
  Retention of Monatin Sweetness: 93.3%
  SEV Monatin: 6.86 % sucrose
[2]; pH 2.5, day 2
  Retention of Monatin Sweetness: 91.2%
  SEV Monatin: 6.70 % sucrose
[2]; pH 2.5, day 3
  Retention of Monatin Sweetness: 88.4%
  SEV Monatin: 6.50 % sucrose
[2]; pH 2.5, day 4
  Retention of Monatin Sweetness: 85.2%
  SEV Monatin: 6.26 % sucrose
[2]; pH 2.5, day 7
  Retention of Monatin Sweetness: 82.7%
  SEV Monatin: 6.08 % sucrose
[2]; pH 2.5, day 8
  Retention of Monatin Sweetness: 81.4%
  SEV Monatin: 5.98 % sucrose
[2]; pH 2.5, day 9
  Retention of Monatin Sweetness: 80.1%
  SEV Monatin: 5.89 % sucrose
[2]; pH 2.5, day 11
  Retention of Monatin Sweetness: 78.6%
  SEV Monatin: 5.78 % sucrose
[2]; pH 2.5, day 50
  Retention of Monatin Sweetness: 62.7%
  SEV Monatin: 4.61 % sucrose
[2]; pH 2.5, day 100
  Retention of Monatin Sweetness: 28.6%
  SEV Monatin: 2.10 % sucrose
[2]; pH 3.0
  Rate constant (k) of sweetness loss: 0.006 day⁻¹
[2]; pH 3.0, after 100 days storage at 40° C.
  Sweetness Retained: 58%
[2]; pH 3.0, day 0
  SEV Monatin: 7.08 % sucrose
[2]; pH 3.0, day 1
  Retention of Monatin Sweetness: 99.6%
  SEV Monatin: 7.05 % sucrose
[2]; pH 3.0, day 2
  Retention of Monatin Sweetness: 93.2%
  SEV Monatin: 6.60 % sucrose
[2]; pH 3.0, day 3
  Retention of Monatin Sweetness: 91.4%
  SEV Monatin: 6.47 % sucrose
[2]; pH 3.0, day 4
  Retention of Monatin Sweetness: 91.6%
  SEV Monatin: 6.49 % sucrose
[2]; pH 3.0, day 7
  Retention of Monatin Sweetness: 85.3%
  SEV Monatin: 6.04 % sucrose
[2]; pH 3.0, day 8
  Retention of Monatin Sweetness: 83.8%
  SEV Monatin: 5.93 % sucrose
[2]; pH 3.0, day 9
  Retention of Monatin Sweetness: 83.1%
  SEV Monatin: 5.88 % sucrose
[2]; pH 3.0, day 11
  Retention of Monatin Sweetness: 83.1%
  SEV Monatin: 5.88 % sucrose
[2]; pH 3.0, day 50
  Retention of Monatin Sweetness: 72.3%
  SEV Monatin: 5.12 % sucrose
[2]; pH 3.0, day 100
  Retention of Monatin Sweetness: 57.9%
  SEV Monatin: 4.10 % sucrose
[2]; pH 4.0
  Rate constant (k) of sweetness loss: 0.003 day⁻¹
[2]; pH 4.0, after 100 days storage at 40° C.
  Sweetness Retained: 78%
[2]; pH 4.0, day 0
  SEV Monatin: 7.40 % sucrose
[2]; pH 4.0, day 3
  Retention of Monatin Sweetness: 95.7%
  SEV Monatin: 7.08 % sucrose
[2]; pH 4.0, day 8
  Retention of Monatin Sweetness: 86.8%
  SEV Monatin: 6.42 % sucrose
[2]; pH 4.0, day 11
  Retention of Monatin Sweetness: 85.9%
  SEV Monatin: 6.36 % sucrose
[2]; pH 4.0, day 17
  Retention of Monatin Sweetness: 82.4%
  SEV Monatin: 6.10 % sucrose
[2]; pH 4.0, day 24
  Retention of Monatin Sweetness: 84.5%
  SEV Monatin: 6.25 % sucrose
[2]; pH 4.0, day 50
  Retention of Monatin Sweetness: 82.9%
  SEV Monatin: 6.14 % sucrose
[2]; pH 4.0, day 100
  Retention of Monatin Sweetness: 78.4%
  SEV Monatin: 5.80 % sucrose
[3]
  degree of degradation: insignificant
[4]; blend with cyclamates
  quantitative synergy with cyclamates: quantitatively synergistic
[4]; with aspartame, saccharin, acesulfame-K, sucralose, or carbohydrate sweeteners
  quantitative synergy with other sweeteners: no significant quantitative synergy

Reference: patent publication US20050170041A1, “Chewing gum compositions comprising monatin and methods for making same” (Cargill, Inc., priority 2003, published 2005)
